Experimental data as given in PubChem BioAssay AID179 (DTP/NCI, 2004).
Calls of active or inactive are those of the source.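 The calls were made as follows: active = compounds giving half or more protection of infected cells from virus-caused growth loss, again on retest; inactive = the rest.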

Tested on: CEM cells HIV-1 protection, formazan growth assay
Assay: NCI AIDS Antiviral Assay
Settings: for IC50: measured here: growth of uninfected CEM cells
Procedure, shortened: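 CEM (human) cells, HIV-1 infected vs uninfected, 5-point dosing, formazan growth read-out. Retest threshold 50% protection.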

O=C1C2CC[C@@H]3C(=O)C(Cl)(Cl)[C@@H]3CCC2C1(Cl)Cl (stereo not given in full)
EC50: > 200 µM | IC50: > 200 µM

c1ccc(CCn2cncn2)cc1
EC50: > 1200 µM | IC50: > 1200 µM

CC1(O)Cc2c(O)c3c(c(O)c2CC1O)C(=O)C=CC3=O (stereo not given)
EC50: > 12.9 µM | IC50: 1.32 µM

[N-]=[N+]=Nc1c(C=O)c(=O)n(-c2ccccc2)c2ccccc12
EC50: > 200 µM | IC50: 21.9 µM

COc1ccc2c(c1)C(=O)C1(C2)[C@H](c2ccccc2)C2C(=O)c3cc(OC)ccc3C2[C@H]1c1ccccc1 (stereo not given in full)
EC50: > 200 µM | IC50: 138 µM

Oc1cc(N2CCCC2)ccc1/C=N/N1C(=S)N(c2ccccc2)C(=Nc2ccccc2)C1=Nc1ccccc1
EC50: > 100 µM | IC50: > 100 µM

C=CCN(N=O)C(=O)N(CCCCC(NC(C)=O)C(=O)NCc1ccccc1)Cc1ccccc1 (stereo not given)
EC50: > 28.2 µM | IC50: > 28.2 µM

O=C(Cc1ccccc1)NN1C(=O)/C(=C\c2ccccc2)SC1=Nc1ccccc1
EC50: > 120 µM | IC50: > 120 µM

CCCc1cc(=O)oc2c3c(c4c(c12)OC(C)(C)C=C4)O[C@H](C)[C@@H](C)C3O (stereo not given in full)
EC50: 2.4 µM | IC50: 11.7 µM

COc1ccccc1NC(=O)CC(=O)n1nc(C)c(N=Nc2ccccc2F)c1C
outcome: inactive

CCOC(=O)C(O)(C(=O)OCC)c1cc(C(C)(C)C)c(O)c(C(C)(C)C)c1
EC50: > 200 µM | IC50: 83.2 µM

Cc1cn(C2CCCCC2O)c(=O)[nH]c1=O (stereo not given)
EC50: > 302 µM | IC50: > 302 µM

CNC(=O)Nc1cc2c3c(c1)CCCN3CCC2
EC50: 135 µM | IC50: 178 µM

O=C1[C@@H]2C(c3ccncc3)=NO[C@@H]2C(=O)N1c1ccc(Cc2ccc(N3C(=O)[C@H]4C(c5ccncc5)=NO[C@H]4C3=O)cc2)cc1
EC50: > 12 µM | IC50: > 12 µM

COc1cc(C2c3cc4c(cc3OC(O)C2C)OCO4)cc(OC)c1O (stereo not given)
EC50: > 200 µM | IC50: 1.05 µM

COc1ccc(-c2cncc(-c3ccc(OC)c(OC)c3)c2)cc1OC
EC50: > 20.4 µM | IC50: > 20.4 µM

CC1CC(C#N)=C2NCCN2C1=O (stereo not given)
EC50: > 200 µM | IC50: > 200 µM

O=C1OCCCCCCOC(=O)c2ccccc2SSc2ccccc21
EC50: > 200 µM | IC50: > 200 µM

CC1(C)OC2OC(C(=O)c3ccccc3)C3OC(C)(C)OC3C2O1 (stereo not given)
outcome: inactive

CN1CC2(CCCCC2)C(O)C12C=CCCC2 (stereo not given)
EC50: > 380 µM | IC50: > 380 µM

CCCNC(=O)c1sc(SC)nc1NC(=O)c1ccc(OC)cc1
EC50: > 200 µM | IC50: > 200 µM

Cc1cccc(/C=N/NC(=S)N2CCCCCC2)n1
EC50: > 200 µM | IC50: 0.0631 µM

Cc1cn(C(C)OCCO[Si](C)(C)C(C)(C)C)c(=O)[nH]c1=O (stereo not given)
EC50: > 200 µM | IC50: 112 µM

COc1cc2c(cc1OC)C13CCC(O)CC1=CC2(C)O3 (stereo not given)
EC50: > 646 µM | IC50: > 646 µM

COc1ccc(C2C(Cl)C(=O)N2NC(=O)Cc2ccccc2)cc1OC (stereo not given)
EC50: > 95.5 µM | IC50: > 95.5 µM

COCn1c(C)c(C)c2c(=O)oc(C)nc21
EC50: > 200 µM | IC50: > 200 µM

N#CC(C#N)=C/C=C/c1ccccc1[N+](=O)[O-]
EC50: > 200 µM | IC50: 3.47 µM

COc1cc(-c2nn3c(C)c(-c4ccccc4)nc3s2)cc(OC)c1OC
EC50: 178 µM | IC50: > 200 µM

O=C(O)c1cccc(S(=O)(=O)c2ccc([N+](=O)[O-])cc2)c1
EC50: > 200 µM | IC50: > 200 µM

Clc1ccc(CSc2ccc3nncc(SCc4ccc(Cl)cc4)c3c2)cc1
EC50: > 60.3 µM | IC50: > 60.3 µM

CCCC(=O)OCC(COC(=O)CCC)OC(=O)CCC
EC50: > 200 µM | IC50: > 200 µM

COC(=O)C(=O)C(C(=O)OC)C(=O)C(=O)Nc1c(Cl)cc([N+](=O)[O-])cc1Cl (stereo not given)
EC50: > 23.4 µM | IC50: > 23.4 µM

CN(C)c1ccc(/C=C/c2ccnc3ccc4ccccc4c23)cc1
EC50: > 79.4 µM | IC50: > 79.4 µM

C/C(=N\Nc1ccccc1Br)c1cccc(/C(C)=N/Nc2ccccc2Br)n1
EC50: > 100 µM | IC50: 85.1 µM

O=C(OC[C@H]1OCC(=O)[C@@]2(OC(=O)c3ccccc3)[C@@H]1[C@H]1C=C[C@@H]2C1)c1ccccc1
outcome: inactive

NS(=O)(=O)c1ccc(CNC(=O)c2ccccc2SC(=O)Oc2ccc([N+](=O)[O-])cc2)cc1
EC50: 1.17 µM | IC50: 36.3 µM

COc1c(OC)c(OC)c2c(=O)cc(-c3ccc(OC(C)=O)cc3)oc2c1OC
EC50: > 200 µM | IC50: 19.5 µM

Cc1cc2c(cc1C)C(=O)C1(C2)Cc2c(C)ccc(C)c2C1=O (stereo not given)
EC50: > 100 µM | IC50: > 100 µM

ON1CCc2c([nH]c3ccccc23)C1c1ccccc1Br (stereo not given)
outcome: inactive

C/C(=N\NC(N)=O)C(CN1CCOCC1)C(c1ccccc1)c1c(O)c2ccccc2oc1=O (stereo not given)
EC50: > 81.3 µM | IC50: 67.6 µM

N#Cc1ncc(C[P+](c2ccccc2)(c2ccccc2)c2ccccc2)nc1N
EC50: > 200 µM | IC50: 170 µM

COc1ccc2nc3c([N+](=O)[O-])ccc4c3c(c2c1)NCCN4CCN(C)C
EC50: > 200 µM | IC50: 1.05 µM
